Tests used:
[1] = test system: HCC372; assay: wound healing migration assay, HCC372; assay type: cell-based, human; details: FIP-gts 2.0 μg/ml, 48 hours
Procedure: (§1) The HCC cells were cultivated on 24-well plates accompanied with a wound healing culture insert until confluence followed by serum starvation of the cells for 24 hours and the culture insert were then removed. After appropriate treatments, pictures were taken under a phase contrast microscope at indicated times. Quantitative analysis of motility of the HCC cell lines described in Example 1 was performed by directly counting the cells migrating into the blanking area at 48 hours using Image J. Software available from the NIH website. In general, motilities of the mesenchymal HCCs were higher than those of the epithelial ones.
The most motile HCC cell lines identified in Example 2, namely HCC372 and HCC329, were employed for testing the molecular and cellular effects of FIP-gts on HCC, in comparison with those of JNJ-38877605 (abbreviated hereafter as JNJ), which is an ATP-competitive inhibitor for the catalytic activity of c-Met. In the cell proliferation assay, HCC329 and HCC372 cells were untreated or treated with FIP-gts (prepared in Example 4) at 0.5, 1.0 or 2.0 μg/ml for 72 hours. Cell numbers were counted, and the relative doubling times of the respective treated groups were determined by taking the data of the untreated group as 100%. […] Relative migration was analyzed quantitatively by taking the motility of untreated cells (Con) as 1.0. […]

[2] = toxicity test on normal SCID mice; assay type: in vivo; details: 20 μg/g mouse intraperitoneal, 2-3 month, data not shown
Procedure: In comparison, the effect of c-Met inhibitor JNJ on tumor progression of HCC329 was not prominent (FIG. 4). The toxicity test of FIP-gts on SCID mice was also performed by treating 4 normal SCID mice without inoculation of HCC329.

[3] = test system: HCC329; assay: wound healing migration assay, HCC329; assay type: cell-based, human; details: FIP-gts, 48 hours
Procedure: The HCC cells were cultivated on 24-well plates accompanied with a wound healing culture insert until confluence followed by serum starvation of the cells for 24 hours and the culture insert were then removed. After appropriate treatments, pictures were taken under a phase contrast microscope at indicated times.
Cell numbers were counted, and the relative doubling times of the respective treated groups were determined by taking the data of the untreated group as 100%. […] Relative migration was analyzed quantitatively by taking the motility of untreated cells (Con) as 1.0.

[4] = test system: c-Met, p-c-Met, p-JNK, p-ERK, p-AKT in HCC372; assay: immuno-blotting of c-Met dependent signaling, HCC372; assay type: cell-based, human; details: 2.0 μg/ml
Procedure: (§2) To investigate the molecular mechanism of FIP-gts in suppression of tumor progression of HCCs, the effects of FIP-gts on the activity and/or quantity of the critical members present in c-Met dependent signaling pathway, including c-Met, phosphorylated c-Met (p-c-Met) and downstream effectors p-JNK and p-ERK, were examined in HCCs. HCC329 and HCC372 cells were treated with FIP-gts (2 μg/ml) for 4 or 24 hours. Total proteins were harvested from the cells and subjected to immuno-blotting analysis using GAPDH as a loading control. Antibodies for p-c-Met, p-JNK, p-ERK and p-paxillin (S178), GAPDH and ERK were purchased from Santa Cruz Biotechnology (California, USA). The band intensities on the blots were quantified with Image J. Software. Relative band intensity of each molecule was calculated, taking the data of untreated HCC372 or HCC329 as 1.0. The results were shown in FIGS. 5A and 5B, in which (**) (##) and (*) (#) represent statistical significance (p<0.005 and p<0.05, respectively, n=3) between the indicated inhibitor-treated sample and untreated HCC329 or HCC372 control group.

[5] = test system: HCC329; assay: cell proliferation assay (doubling time), HCC329; assay type: cell-based, human; details: 0.5, 1.0 and 2.0 μg/ml, dose dependent, 72 hours, untreated = 100%
Procedure: (§3) The most motile HCC cell lines identified in Example 2, namely HCC372 and HCC329, were employed for testing the molecular and cellular effects of FIP-gts on HCC, in comparison with those of JNJ-38877605 (abbreviated hereafter as JNJ), which is an ATP-competitive inhibitor for the catalytic activity of c-Met. In the cell proliferation assay, HCC329 and HCC372 cells were untreated or treated with FIP-gts (prepared in Example 4) at 0.5, 1.0 or 2.0 μg/ml for 72 hours. Cell numbers were counted, and the relative doubling times of the respective treated groups were determined by taking the data of the untreated group as 100%. The wound healing migration assay was repeated as described in Example 2, except that HCC329 and HCC372 were additionally treated with FIP-gts and JNJ (MedKoo Biosciences, Chapel Hill, N.C., USA), respectively, for 48 hours. Relative migration was analyzed quantitatively by taking the motility of untreated cells (Con) as 1.0. The results were shown in FIGS. 3A and 3B, in which the symbols (**), (*) and (#) represent statistical significance (p<0.005 and p<0.05, respectively, n=3) between the indicated inhibitor-treated samples and untreated HCC329 or HCC372 control group.

[6] = test system: HepG2; assay: wound healing migration assay, HGF-induced HepG2; assay type: cell-based, human; details: 25 nM HGF, FIP-gts 2.0 μg/ml versus JNJ 26.5 nM, 48 hours
Procedure: as §1
In a separate experiment, human hepatoma cell line HepG2, a non-motile HCC cell line conventionally used for observing HGF-inducible molecular and cellular effects, was employed. In this experiment, the wound healing migration assay described in Example 2 was again repeated, except that HepG2 (purchased from Bioresource Collection and Research Center (BCRC), Hsinchu, Taiwan) was treated with FIP-gts or JNJ-38877605 for 48 hours in the presence or absence of 25 nM HGF (PeproTech Inc., Rocky Hill, N.J., USA). Relative migration was quantitatively analyzed taking the motility of untreated cells (Con) as 1.0. […]

[7] = test system: p-JNK, p-ERK, p-AKT, p-EGFR in HCC329; assay: immuno-blotting of signaling molecules, HCC329; assay type: cell-based, human
Excerpt: as §2, with “HCC329 and HCC372 cells were treated with FIP-gts (2 μg/ml) for 4 or 24 hours.” left out, “1.0.” for “1.0. The results were shown in FIGS. 5A and 5B, in which (**) (##) and (*) (#) represent statistical significance (p<0.005 and p<0.05, respectively, n=3) between the indicated inhibitor-treated sample and untreated HCC329 or HCC372 control group.”

[8] = test system: HCC329; assay: HCC329 tumor development and metastasis in SCID mice model; assay type: in vivo; details: FIP-gts 4.0-20 μg/g mouse, intraperitoneal twice a week, 2 months
Procedure: HCC329 cells (approximately 2×10^7) suspended in 100 μl Dulbecco's Modified Eagle Medium (DMEM; Gibco, Grand Island, N.Y., USA) were directly injected into the subserosa of the middle liver lobe of the SCID mice, followed by intraperitoneal administration twice a week with DMEM as a vehicle, vehicle-containing FIP-gts (4.0-20 μg/g mouse) or JNJ (0.5-2.0 nmole/g mouse).
The mice were sacrificed 2 months after injection. Tumor mass was measured and the occurrence of intrahepatic metastasis and/or extrahepatic metastasis was recorded. Nodules with diameter of more than 0.1-0.2 cm observed on the left or right lobes were recognized as secondary tumor foci. […] Extra-hepatic metastasis was defined to be the case where the tumors appearing in organs other than liver such as in intestine. During the animal experiment, the regulations relevant to the care and use of laboratory animals were followed. This was approved by the Institutional Animal Care and Use Committee (IACUC) in Tzu Chi University (No. of consent form: 102080).

[9] = test system: HGF-induced c-Met signaling in HepG2; assay: immuno-blotting of HGF-induced c-Met signaling, HepG2; assay type: cell-based, human; details: 2.0 μg/ml, 0.5 hour, HGF 25 nM
Procedure: HepG2 cells were treated with FIP-gts (2.0 μg/ml) for 0.5 hour in the presence or absence of HGF (25 nM). Total proteins were harvested from the cells and immuno-blotting analysis was performed as described in Example 6, except using ERK as the loading control. The results were shown in FIGS. 5C and 5D, in which (**) represent statistical significance (p<0.005, n=3) between the indicated HGF/FIP-gts co-treated sample and the HGF alone group.

[10] = test system: HCC372; assay: cell proliferation assay (doubling time), HCC372; assay type: cell-based, human; details: 0.5, 1.0 and 2.0 μg/ml, dose dependent, 72 hours, untreated = 100%
Procedure: as §3

## FIP-gts: fungal immunomodulatory protein of SEQ ID NO: 1 (Ganoderma tsugae), recombinantly expressed in Saccharomyces cerevisiae
[1]
  suppression of cell migration: 95%
[2]
  adverse effects (activity of animals, integrity of organs): no adverse effects was observed
[3]
  suppression of cell migration: 80%
[4]
  effect on p-JNK: didn't decrease p-JNK at all
[4]; 4th hour
  suppression of expression of Met protein: 90-95%
  suppression of phosphorylation of AKT: 80-95%
  suppression of phosphorylation of ERK: 80-95%
  suppression of phosphorylation of Met (at Tyr1234): 55%
[5]
  increase of doubling time: 25-46%
[6]
  prevention of HGF-induced cell migration: much more effectively than JNJ
[7]; 2.0 μg/ml, 24 hours
  decrease of phosphorylation of AKT: 18%
  decrease of phosphorylation of ERK: 51%
  decrease of phosphorylation of JNK: 85%
[7]; 16 hours, versus untreated, data not shown
  phosphorylated EGFR (p-EGFR) level: remarkably reduced
[8]
  secondary tumors on liver lobes (intra-hepatic metastasis): normal liver lobule structure
  tumor progression (primary tumor growth and intra-metastasis) of HCC329: dramatically suppressed tumor progression
[9]
  suppression of HGF-induced p-ERK: 85-90%
  suppression of HGF-induced p-JNK: 85-90%
  suppression of HGF-induced p-c-Met: 85-90%
  suppression of HGF-induced phosphorylated paxillin (at Ser 178): 85-90%
[10]
  increase of doubling time: 14-47%

Source: US20170368119A1, “METHODS AND COMPOSITIONS FOR TREATING C-MET ASSOCIATED CANCERS” (YEASTERN BIOTECH CO., LTD, priority 2014, published 2017)
